Reference: ChEMBL document CHEMBL1201862, “PubChem BioAssay data set” (2004)
Active and inactive are the calls of the source. Cut-off read from the data, not from the text of the source, for most assays here: actives have a measured EC50 and inactives only a lower limit.

Tests used:
[1] = molecular target: T1, Corticotropin-releasing factor receptor 2/Corticotropin-releasing factor-binding protein (Homo sapiens, UniProt P24387+Q13324); experiment: activators of CRF receptor 2 with binding protein – uHTS hits, confirmation (AID 602473); assay type: functional; details: read-out: EC50_Mean
T1 sequence (Q13324 whole entry): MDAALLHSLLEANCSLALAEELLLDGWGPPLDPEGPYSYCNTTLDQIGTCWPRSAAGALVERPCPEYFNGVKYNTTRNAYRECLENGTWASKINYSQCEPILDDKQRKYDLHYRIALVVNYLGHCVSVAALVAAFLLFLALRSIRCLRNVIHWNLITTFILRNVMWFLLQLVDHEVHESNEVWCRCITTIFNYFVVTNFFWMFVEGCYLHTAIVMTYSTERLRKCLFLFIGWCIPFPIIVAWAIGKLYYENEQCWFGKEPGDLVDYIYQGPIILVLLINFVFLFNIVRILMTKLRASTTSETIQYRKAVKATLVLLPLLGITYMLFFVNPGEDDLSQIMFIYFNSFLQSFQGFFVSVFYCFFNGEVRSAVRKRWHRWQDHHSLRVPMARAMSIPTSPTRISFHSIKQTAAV
T1 sequence (P24387 whole entry): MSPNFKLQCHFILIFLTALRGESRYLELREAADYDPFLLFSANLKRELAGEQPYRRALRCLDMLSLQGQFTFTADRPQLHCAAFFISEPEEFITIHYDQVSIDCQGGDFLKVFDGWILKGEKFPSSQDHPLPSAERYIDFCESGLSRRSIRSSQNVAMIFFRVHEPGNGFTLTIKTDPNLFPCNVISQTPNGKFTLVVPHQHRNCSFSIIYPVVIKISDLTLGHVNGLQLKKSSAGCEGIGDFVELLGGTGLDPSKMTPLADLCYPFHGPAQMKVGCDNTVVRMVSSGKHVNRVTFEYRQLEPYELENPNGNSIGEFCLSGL

[2] = CRF-BP/CRF-R2 complex antagonists, dose response, cell-based, uHTS hits, 384-well (AID 651639); assay type: functional, Homo sapiens; details: read-out: IC50_Mean
[3] = molecular target: T1, Corticotropin-releasing factor receptor 2/Corticotropin-releasing factor-binding protein; experiment: Dose Response confirmation of uHTS hits for small molecule antagonists of the CRF-binding protein and CRF-R2 receptor complex.; assay type: functional; details: read-out: IC50_Mean
[4] = molecular target: T2, Calpain-2 catalytic subunit (Sus scrofa, UniProt P43367); experiment: pig calpain II inhibitor potency, dose response, biochemical, fluorogenic peptide substrate (AID 1420); assay type: functional
T2 sequence (P43367 whole entry): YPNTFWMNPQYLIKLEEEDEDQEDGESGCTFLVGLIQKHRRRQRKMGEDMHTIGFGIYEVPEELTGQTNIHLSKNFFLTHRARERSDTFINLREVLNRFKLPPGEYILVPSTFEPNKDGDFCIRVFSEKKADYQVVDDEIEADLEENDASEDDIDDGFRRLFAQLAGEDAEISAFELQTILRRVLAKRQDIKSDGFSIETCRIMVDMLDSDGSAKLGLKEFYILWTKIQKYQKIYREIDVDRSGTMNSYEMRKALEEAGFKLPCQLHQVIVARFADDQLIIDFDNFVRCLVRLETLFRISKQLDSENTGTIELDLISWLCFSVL

[5] = NIH-3T3 fibroblast cytotoxicity, dose response, cytotoxicity control, cell-based, fluorescence, Alamar Blue, secondary assay (AID 2327); assay type: functional;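 note: NIH-3T3 mouse fibroblasts cultured with fluconazole at 8 µg/mL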
[6] = system: Streptococcus sp. 'group A'; experiment: growth inhibition of control SK(-) GAS strain, dose response, counter-screen for streptokinase expression inhibitor project, luminescence, kanamycin, BacTiterGlo, confirmation (AID 1900); assay type: functional, organism-based
[7] = inhibitors of intracellular T. cruzi replication, confirmation, NIH3T3 host cells, beta-gal luminescence (AID 2044); assay type: functional, cell-based;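 note: intracellular parasites grown in NIH/3T3 mouse fibroblasts as host cells; luminescent beta-galactosidase reporter signal from transgenic T. cruzi replicating inside host cells; inhibitors lower the luminescence signal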
[8] = cytotoxicity toward NIH3T3 fibroblasts, dose response, counter-screen, cell-based, ATP luminescence, mouse fibroblasts (AID 2010); assay type: functional;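 note: cells exposed to compound for about 90 hours before reading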
[9] = C. albicans growth with fluconazole, confirmation, fluorescence, retest (AID 2467); assay type: functional, cell-based
Streptococcus = experiment: Group A Streptococcus viability loss, dose response, counter-screen for streptokinase expression inhibitor project, luminescence, BacTiterGlo (AID 1915); assay type: functional, organism-based;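 note: potency for reduction of bacterial viability or growth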
INS1 = experiment: beta cell apoptosis inhibitors, cytokine rescue, dose response, luminescence, retest (AID 449756); assay type: functional, cell-based; details: Rattus norvegicus;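 note: cell death triggered by IL-1 beta plus TNF-alpha plus IFN-gamma mixture; protective hits raise ATP signal compared with cytokine alone wells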
[10] = molecular target: T3, Serine/threonine-protein phosphatase (Candida dubliniensis (strain CD36 / CBS 7987 / NCPF 3949 / NRRLY-17841) (Yeast), UniProt B9W6M3); experiment: calcineurin pathway inhibitors in yeast reporter, dose response, S. cerevisiae, CDRE-lacZ, luminescence, secondary (AID 2388); assay type: functional, cell-based;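 note: yeast reporter cells carrying a calcineurin-responsive lacZ construct stimulated with calcium chloride; luminescent beta-galactosidase reporter signal in whole cells rather than isolated phosphatase activity; potency for inhibition where a drop in reporter signal means calcineurin blockade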
T3 sequence (B9W6M3 whole entry): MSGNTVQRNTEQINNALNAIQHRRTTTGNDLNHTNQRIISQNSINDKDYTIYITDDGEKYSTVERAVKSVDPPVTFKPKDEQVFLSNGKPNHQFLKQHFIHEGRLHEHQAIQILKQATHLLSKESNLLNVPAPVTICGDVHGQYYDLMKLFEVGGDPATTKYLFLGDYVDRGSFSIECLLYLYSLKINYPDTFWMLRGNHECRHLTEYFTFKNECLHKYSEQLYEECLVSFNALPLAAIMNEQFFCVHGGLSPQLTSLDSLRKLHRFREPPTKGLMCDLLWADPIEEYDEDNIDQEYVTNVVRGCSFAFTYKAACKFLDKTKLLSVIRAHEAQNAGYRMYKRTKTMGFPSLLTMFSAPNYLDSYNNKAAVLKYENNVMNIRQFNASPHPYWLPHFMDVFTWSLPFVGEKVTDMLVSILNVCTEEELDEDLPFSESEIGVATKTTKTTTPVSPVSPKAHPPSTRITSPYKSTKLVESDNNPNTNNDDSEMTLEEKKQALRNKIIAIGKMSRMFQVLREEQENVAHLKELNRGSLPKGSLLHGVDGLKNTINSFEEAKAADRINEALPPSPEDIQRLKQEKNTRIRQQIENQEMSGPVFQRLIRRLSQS

Streptokinase A = molecular target: T4, Streptokinase A (Streptococcus pyogenes serotype M1, UniProt P10520); experiment: S. pyogenes streptokinase expression inhibitors, potency, dose response, plasminogen activation absorbance, OD405 (AID 1914); assay type: functional, Streptococcus pyogenes M1 GAS;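 note: secreted streptokinase activity via plasminogen activation per viability signal from cell pellet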
T4 sequence (P10520 whole entry): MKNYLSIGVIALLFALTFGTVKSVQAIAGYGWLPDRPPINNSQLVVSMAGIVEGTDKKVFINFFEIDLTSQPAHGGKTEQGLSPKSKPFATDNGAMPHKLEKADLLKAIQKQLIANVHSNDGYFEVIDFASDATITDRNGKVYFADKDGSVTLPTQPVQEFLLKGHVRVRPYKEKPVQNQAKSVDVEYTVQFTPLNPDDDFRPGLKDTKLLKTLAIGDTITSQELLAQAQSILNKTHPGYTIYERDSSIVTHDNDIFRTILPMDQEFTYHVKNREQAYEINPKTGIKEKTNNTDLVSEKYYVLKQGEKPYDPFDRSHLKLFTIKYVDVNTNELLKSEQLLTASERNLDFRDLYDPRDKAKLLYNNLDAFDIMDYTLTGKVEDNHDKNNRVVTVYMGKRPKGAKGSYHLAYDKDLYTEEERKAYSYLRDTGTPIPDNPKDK

[11] = molecular target: ATP-dependent molecular chaperone HSP82 (Candida albicans (strain WO-1) (Yeast), UniProt C4YTQ8); experiment: loss of DOC-induced GRE-beta-galactosidase reporter signal, dose response, Hsp90 inhibitor project, S. cerevisiae, luminescence (AID 2400); assay type: functional, cell-based;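 note: beta-galactosidase luminescence from glucocorticoid response element reporter as proxy for Hsp90 function; inhibitor potency where signal loss means Hsp90 inhibition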
Cytochrome P450 2D6 = Cytochrome P450 2D6 (Homo sapiens, UniProt P10635);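 note: CYP2D6 member of a cytochrome P450 panel assay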
Sequence of Cytochrome P450 2D6 (P10635 whole entry): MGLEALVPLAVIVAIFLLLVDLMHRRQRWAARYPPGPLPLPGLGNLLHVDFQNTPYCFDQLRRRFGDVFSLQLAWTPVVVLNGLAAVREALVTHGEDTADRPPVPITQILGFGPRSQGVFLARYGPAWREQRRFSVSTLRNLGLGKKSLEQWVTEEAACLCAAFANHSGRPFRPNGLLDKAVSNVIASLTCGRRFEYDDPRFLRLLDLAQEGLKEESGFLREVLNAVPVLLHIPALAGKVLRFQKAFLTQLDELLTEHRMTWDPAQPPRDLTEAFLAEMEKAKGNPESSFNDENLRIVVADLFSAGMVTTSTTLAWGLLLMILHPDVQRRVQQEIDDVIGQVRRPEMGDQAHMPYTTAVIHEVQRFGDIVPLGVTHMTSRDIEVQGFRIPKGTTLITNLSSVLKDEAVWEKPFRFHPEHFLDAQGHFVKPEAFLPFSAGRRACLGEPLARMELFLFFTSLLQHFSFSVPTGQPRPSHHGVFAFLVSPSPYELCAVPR

Sequence of ATP-dependent molecular chaperone HSP82 (C4YTQ8 whole entry): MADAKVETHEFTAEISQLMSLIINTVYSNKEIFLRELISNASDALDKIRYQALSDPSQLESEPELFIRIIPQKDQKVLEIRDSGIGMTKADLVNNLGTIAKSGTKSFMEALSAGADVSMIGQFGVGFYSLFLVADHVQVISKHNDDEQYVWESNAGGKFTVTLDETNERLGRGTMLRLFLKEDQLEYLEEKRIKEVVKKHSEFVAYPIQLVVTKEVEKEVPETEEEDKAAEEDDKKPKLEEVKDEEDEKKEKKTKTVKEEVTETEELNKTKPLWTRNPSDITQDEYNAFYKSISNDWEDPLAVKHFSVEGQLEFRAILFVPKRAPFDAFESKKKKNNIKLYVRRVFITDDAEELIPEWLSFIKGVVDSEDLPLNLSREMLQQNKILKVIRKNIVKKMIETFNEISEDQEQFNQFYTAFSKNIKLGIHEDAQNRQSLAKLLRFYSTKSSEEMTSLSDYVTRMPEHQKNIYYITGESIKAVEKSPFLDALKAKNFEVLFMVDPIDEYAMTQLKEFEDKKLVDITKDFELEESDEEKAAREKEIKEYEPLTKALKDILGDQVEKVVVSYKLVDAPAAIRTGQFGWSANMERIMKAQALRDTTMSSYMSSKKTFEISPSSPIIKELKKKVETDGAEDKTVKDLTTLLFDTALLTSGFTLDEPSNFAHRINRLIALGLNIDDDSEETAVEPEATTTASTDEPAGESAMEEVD

Compound | EC50 [1] | IC50 [2] | IC50 [3] | other results
CCOC(=O)Nc1ccc(Oc2ccccc2)cc1 | > 53 µM (inactive) | > 20 µM (inactive) | 15.2 µM (active) | 
CC(=O)c1ccc(N2CCN(C(=O)c3cccc(Oc4ccccc4)c3)CC2)cc1 | > 53 µM (inactive) | 6.67 µM (active) | 2.16 µM (active) | IC50 [4]: 12.3 µM (not active)
CCC(=O)NC(c1ccc(C)cc1)c1cc([N+](=O)[O-])c2cccnc2c1O (centres undefined) |  |  |  | EC50 [5]: 21.8 µM (active); EC50 [6]: 1.17 µM (active); EC50 [7]: 1.34 µM (active); EC50 [8]: 6.02 µM (active); EC50 [9]: 0.212 µM (active); EC50 (Streptococcus): 12.7 µM (active); AC50 (INS1): 5.53 µM (active); EC50 [10]: > 180 µM (inactive); EC50 (Streptokinase A): 56.5 µM (active); EC50 [11]: > 150 µM (inactive)
COC(=O)C(NC(=O)c1ccc(F)cc1)(Nc1ncc(S(=O)(=O)c2ccc([N+](=O)[O-])cc2)s1)C(F)(F)F (centres undefined) | > 53 µM (inactive) | 14.5 µM (active) | 16.3 µM (active) | AC50 (Cytochrome P450 2D6): 31.6 µM (inconclusive)
CCCCN(c1ccc(C(=O)OC)cc1)S(=O)(=O)c1ccccc1 | > 53 µM (inactive) | > 20 µM (inactive) | < 0.368 µM (active) | 
